Reference: ChEMBL document CHEMBL5523759, “Discovery of Novel HDAC3 Inhibitors with PD-L1 Downregulating/Degrading and Antitumor Immune Effects” (J Med Chem, 2024)
pIC50: −log10 of the molar value. Values after ≈ are worked out from the molar mass of the structure shown. Active and inactive are the calls of the source. No cut-off for these calls is given here.

Columns and labels:
Jurkat = assay: Antiproliferative activity against human Jurkat T cells assessed as reduction in cell viability measured for 48 hrs by CCK-8 assay; assay type: functional, cell-based
[1] = Antiproliferative activity against human MINO cells assessed as reduction in cell viability measured for 48 hrs by MTT assay; assay type: functional, cell-based
Daudi = assay: Antiproliferative activity against human Daudi cells assessed as reduction in cell viability measured for 48 hrs by MTT assay; assay type: functional, cell-based
Histone deacetylase 7 = molecular target: T1, Histone deacetylase 7 (Homo sapiens, UniProt Q8WUI4); assay: Inhibition of human recombinant HDAC7 using Ac-Leu-Gly-Lys (Tfa)-AMC as substrate preincubated with compound for 10 mins followed by substrate addition and measured after 45 mins by TECAN microtiter plate reader analysis
T1 sequence (Q8WUI4 whole entry): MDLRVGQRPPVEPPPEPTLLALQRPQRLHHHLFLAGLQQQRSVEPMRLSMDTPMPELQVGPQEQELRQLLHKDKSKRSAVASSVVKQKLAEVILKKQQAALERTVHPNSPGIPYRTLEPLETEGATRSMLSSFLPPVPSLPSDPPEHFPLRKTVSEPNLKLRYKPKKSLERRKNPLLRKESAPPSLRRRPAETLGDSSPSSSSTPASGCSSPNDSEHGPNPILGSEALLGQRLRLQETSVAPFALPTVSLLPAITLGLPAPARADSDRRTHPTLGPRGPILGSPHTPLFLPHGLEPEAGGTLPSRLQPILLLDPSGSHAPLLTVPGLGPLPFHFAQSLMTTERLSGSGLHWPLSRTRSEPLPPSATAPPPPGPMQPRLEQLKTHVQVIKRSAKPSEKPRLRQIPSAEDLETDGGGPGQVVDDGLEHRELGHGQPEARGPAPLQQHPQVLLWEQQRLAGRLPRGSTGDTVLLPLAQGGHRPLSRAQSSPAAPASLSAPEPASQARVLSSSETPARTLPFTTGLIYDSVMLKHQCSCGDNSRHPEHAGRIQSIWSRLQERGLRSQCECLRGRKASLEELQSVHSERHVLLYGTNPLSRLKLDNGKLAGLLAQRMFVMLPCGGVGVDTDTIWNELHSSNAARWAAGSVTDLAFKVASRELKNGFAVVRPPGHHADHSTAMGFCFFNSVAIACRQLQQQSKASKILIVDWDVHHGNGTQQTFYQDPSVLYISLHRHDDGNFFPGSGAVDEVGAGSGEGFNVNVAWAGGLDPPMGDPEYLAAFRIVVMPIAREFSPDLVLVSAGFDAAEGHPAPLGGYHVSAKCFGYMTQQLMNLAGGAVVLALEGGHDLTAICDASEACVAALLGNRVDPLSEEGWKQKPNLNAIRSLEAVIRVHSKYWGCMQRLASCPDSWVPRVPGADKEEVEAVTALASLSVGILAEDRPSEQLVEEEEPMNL

B16-F10 [2] = assay: Induction of apoptosis in mouse B16-F10 cells at 0.5 uM measured for 48 hrs by Annexin-V/FITC staining based flow cytometry analysis relative to control; assay type: functional
B16-F10 [3] = assay: Induction of apoptosis in mouse B16-F10 cells at 2 uM measured for 48 hrs by Annexin-V/FITC staining based flow cytometry analysis relative to control; assay type: functional
B16-F10 [4] = assay: Induction of apoptosis in mouse B16-F10 cells at 4 uM measured for 48 hrs by Annexin-V/FITC staining based flow cytometry analysis relative to control; assay type: functional
B16-F10 [5] = assay: Induction of cell cycle arrest in mouse B16-F10 cells assessed as accumulation of cells at G2/M phase measured for 48 hrs by flow cytometry analysis; assay type: functional, cell-based; settings: dose 0.5-4 µM
B16-F10 [6] = assay: Induction of cell cycle arrest in mouse B16-F10 cells assessed as accumulation of cells at G0/G1 phase measured for 48 hrs by flow cytometry analysis; assay type: functional, cell-based; settings: dose 0.5-4 µM
[7] = molecular target: T2, Histone deacetylase 8 (Mus musculus) (UniProt Q8VH37); assay: Inhibition of HDAC8 in mouse B16-F10 cells assessed as effect on acetylated SMC3 level at 1 to 2 uM measured for 24 hrs by Western blot analysis; assay type: cell-based; settings: dose 1-2 µM
T2 sequence (whole entry): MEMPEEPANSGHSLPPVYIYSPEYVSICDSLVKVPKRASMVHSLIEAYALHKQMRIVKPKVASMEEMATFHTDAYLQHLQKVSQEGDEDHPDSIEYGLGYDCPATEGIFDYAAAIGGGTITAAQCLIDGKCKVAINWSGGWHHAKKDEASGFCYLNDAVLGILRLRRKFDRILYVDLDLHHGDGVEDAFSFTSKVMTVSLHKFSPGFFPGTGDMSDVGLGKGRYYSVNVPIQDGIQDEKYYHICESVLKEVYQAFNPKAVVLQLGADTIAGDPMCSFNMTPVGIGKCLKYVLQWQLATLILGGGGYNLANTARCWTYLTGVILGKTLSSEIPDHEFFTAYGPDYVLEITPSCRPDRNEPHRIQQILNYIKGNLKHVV

[8] = Aqueous solubility of compound measured for 24 hrs by shake flask based HPLC analysis; assay type: physicochemical; settings: buffer
HCT-116 = assay: cells; settings: Homo sapiens, HCT-116, 48 h
Description: Antiproliferative activity against human HCT-116 cells assessed as reduction in cell viability measured for 48 hrs by MTT assay

MCF7 = assay: cells; settings: Homo sapiens, MCF7, 48 h
Description: Antiproliferative activity against human MCF7 cells assessed as reduction in cell viability measured for 48 hrs by MTT assay

For `Nc1ccccc1NC(=O)c1ccc(-c2ncc(CNc3ccccc3)s2)cc1`, the pIC50 (Jurkat) was 6.85, the pIC50 [1] was 7.28 and the Activity (Daudi) was “Active”. For the same compound, the pIC50 (Histone deacetylase 7) was less than 5.00, the Activity (B16-F10 [2]) was 11% and the Activity (B16-F10 [3]) was 18.77%. For the same compound, the Activity (B16-F10 [4]) was 20.96%, the Activity (B16-F10 [5]) was “Dose-Dependent Effect” and the Activity (B16-F10 [6]) was “Dose-Dependent Effect”. For the same compound, the inhibition [7] was “inactive”, the solubility thermodynamic at 24 h [8] was 3.8 µg/mL (≈ 9.49 µM) and the pIC50 (HCT-116) was 5.80. The pIC50 (MCF7) was 5.48.
For `CCCNNC(=O)c1ccc(CNC(=O)c2ncc(CNc3ccccc3)s2)cc1`, the pIC50 (Jurkat) was 7.05, the pIC50 [1] was 7.52 and the Activity (Daudi) was “Active”. It also gave a pIC50 (Histone deacetylase 7) of less than 5.00, an Activity (B16-F10 [2]) of 21.23% and an Activity (B16-F10 [3]) of 61.84%. For the same compound, the Activity (B16-F10 [4]) was 61.25%, the Activity (B16-F10 [5]) was “Dose-Dependent Effect” and the Activity (B16-F10 [6]) was “Dose-Dependent Effect”. For the same compound, the inhibition [7] was “inactive”, the solubility thermodynamic at 24 h [8] was 15.6 µg/mL (≈ 36.8 µM) and the pIC50 (HCT-116) was 6.37. The pIC50 (MCF7) was 5.53.
